Source: patent publication US7875604B2, “Compounds that inhibit HIV particle formation” (University of Virginia Patent Foundation, priority 2004, dated 2011)
Where two headings read alike, the source gives them in different places.

How the values were obtained:
fresh human PBMCs = experiment: MTS staining for PBMC viability to measure cytotoxicity; format: cell-based
Experimental: For the standard PBMC assay, PHA-P stimulated cells from at least two normal donors were pooled (mixed together), diluted in fresh medium to a final concentration of 1×10^6 cells/mL, and plated in the interior wells of a 96 well round bottom microplate at 50 μL/well (5×10^4 cells/well) in a standard format developed by the Infectious Disease Research department of Southern Research Institute. Pooling (mixing) of mononuclear cells from more than one donor is used to minimize the variability observed between individual donors, which results from quantitative and qualitative differences in HIV infection and overall response to the PHA and IL-2 of primary lymphocyte populations. Each plate contains virus/cell control wells (cells plus virus), experimental wells (drug plus cells plus virus) and compound control wells (drug plus media without cells, necessary for MTS monitoring of cytotoxicity). Since HIV-1 is not cytopathic to PBMCs, this allows the use of the same assay plate for both antiviral activity and cytotoxicity measurements. Test drug dilutions were prepared at a 2× concentration in microtiter tubes and 100 μL of each concentration was placed in appropriate wells using the standard format. 50 μL of a predetermined dilution of virus stock was placed in each test well (final MOI≅0.1). The PBMC cultures were maintained for seven days following infection at 37° C., 5% CO2. After this period, cell-free supernatant samples were collected for analysis of reverse transcriptase activity as a measure of virus release. Following removal of supernatant samples, compound cytotoxicity was measured by addition of MTS to the plates for determination of cell viability. Wells were also examined microscopically and any abnormalities were noted.
At assay termination, assay plates were stained with the soluble tetrazolium-based dye MTS (CellTiter 96 Reagent, Promega) to determine cell viability and quantify compound toxicity. The mitochondrial enzymes of metabolically active cells metabolize MTS to yield a soluble formazan product. This allows the rapid quantitative analysis of cell viability and compound cytotoxicity. […] At termination of the assay, 20 μL of MTS reagent was added per well. The microtiter plates were then incubated 4-6 hrs at 37° C. The incubation intervals were chosen based on empirically determined times for optimal dye reduction. Adhesive plate sealers were used in place of the lids, the sealed plate was inverted several times to mix the soluble formazan product and the plate was read spectrophotometrically at 490/650 nm with a Molecular Devices Vmax or SpectraMaxPlus plate reader.
Compounds were tested in the PBMC assay using the maximum high-test concentration possible based on the supplied stocks which are listed in table 3. Compounds were prepared at a 2× high-test concentration by combining drug stock with tissue culture media at a ratio of 5 μL of drug to 995 μL of media. This 2× high-test sample was subsequently serially diluted in tissue culture media using 1/2 log dilutions. This series of 2× concentrated drug was subsequently diluted 1:1 by combining with an equal volume of cells in media in the 96-well plates used for the assay.

[1] = tested on: HIV particle formation in 5BD.1 cells; experiment: Six point dose response assay of HIV particle release (p24 ELISA) in 5BD.1 cells; format: cell-based, HIV-1; settings: for IC50: six point dose response, p24 in 5BD.1 cells, Table 1; for TI (TC50/IC50): TC50 MT4 cells / IC50 5BD.1 cells
Excerpt: The present invention is directed to a safe quantitative in vitro high-throughput assay to screen library compounds for effects on Rev-dependent p24 production. Two cell lines derived from COS cells provide the means of determining whether a library compound has anti-Rev activity-5BD.1 and 2A.22. These cell lines constitutively express HIV-like particles that contain the HIV core proteins as well as HIV envelope protein. The non-infectious virions created by these cells are secreted into the media, where a simple p24 ELISA can quantitatively determine virion production. Production of these virus-like particles is totally dependent on the expression of the Rev protein (for the 5BD.1 cell line), which is also made in these cell lines, or independent of Rev protein expression (the 2A.22 cell line).
The cell line 5BD.1 was created by transfecting COS cells with the wild type HIV-1 structural and regulatory genes gag, gagpol, rev, and env. Each of these genes is necessary but not sufficient for producing infectious HIV virions. Non-infectious virions are produced in 5BD.1 cells via the same pathways as in CD4^+ cells. Inhibition of Rev with a library compound would therefore have the same effect on viral production in 5BD.1 cells as in CD4^+ cells.
Each of the 192 compounds was then subjected to 3 and 6 point dose response assays in 5BD.1 cells and toxicity testing in the MT-4 T cell line. The dose response assay was performed as follows
• 1. 5BD.1 cells were carried in 2 T175 flasks in medium (IMDM/10% FCS/0.2 mg/ml HygromycinB/1.5 mg/ml G418/0.05 mg/ml gentamycin). Cells were trypsinized and harvested from a 90% confluent flask. • 2. 20,000 cells per well were plated into rows A-G of 8 tissue culture treated clear 96-well plates in 135 μl per well of medium without G418 (assay medium). 135 μl of medium only was added to row H. • 3. The plates were placed into the incubator for one hour. • 4. Compounds were serially diluted 1:3 two times from 1 mM DMSO stocks in DMSO in 96 well polypropylene plates. 8 μl of the DMSO solutions were transferred to another plate and 72 μl of assay medium was added. • 5. 15 μl of each diluted compound was transferred to the cell plates in duplicate with the high (10 μM final concentration in rows A-B, 3 μM concentration in rows C-D, 1 μM concentration in rows E-F and DMSO only in rows G-H). • 6. The plates were then incubated overnight for 16 hours. • 7. In the morning of the next day the medium was removed by hand from all wells. • 8. 135 μl of fresh assay medium was added to each well followed by 15 μl of diluted compounds as described in step 5. • 9. The plates were then incubated for 24 hours and the medium was harvested. p24 ELISA Assay: • 10. Dilute primary antibody to 4 μg/ml in DPBS without calcium and magnesium, add 50 μl per well of a 96 well Maxisorp plate, incubate overnight at 4° C. • 11. Aspirate coating solution, block for 30-60 minutes with 200 μl ELISA buffer (4 mg/ml BSA, 0.01% Tween20 in DPBS without calcium and magnesium). • 12. Wash plates 2×. • 13. Add 50 μl of the supernatants from step 9 above. • 14. Add 15 μl of a 1:750 dilution of biotinylated secondary antibody in 40% lysis buffer/ELISA buffer. • 15. Incubate 2 hours at room temperature with shaking. • 16. Wash plates 3×. • 17. Add 50 μL/well of a 1:10,000 dilution of detection SA-HRP. Incubate at room temperature with shaking for 30 minutes. • 18. Wash plates 3×. Add 50 μL/well of TMB substrate solution to all wells and develop for approximately 15 minutes until blue. • 19. Stop the reaction with 50 μL/well 0.18M sulfuric acid. • 20. Read plate at 450 nm. Toxicity Assays:
The six point dose assay in 5BD.1 cells was used to calculate an IC50 for the compounds and data from the MT-4 toxicity assay allowed a TC50 to be calculated.

| Compound | CC50 (fresh human PBMCs; human, 7 days) | IC50 ([1]; Human immunodeficiency virus 1) | TI (TC50/IC50) [1] | CC50 (fresh human PBMCs; PBMC plates with HIV-1 BR/93/021, MTS, read-out: TC50 (the source's name)) | CC50 (fresh human PBMCs; PBMC plates with HIV-1 NL4-3, MTS, read-out: TC50 (the source's name)) | IC50 [1] |
| --- | --- | --- | --- | --- | --- | --- |
| Fc1ccc(Nc2ncnc3ccccc23)cc1Cl [Compound 109020, N-(3-chloro-4-fluorophenyl)-N-(4-quinazolinyl)amine] | > 40800 nM | 3000 nM | 33.3 | – | – | – |
| COc1ccc2cc3c(N)n[nH]c3nc2c1 [Compound 89246, 7-methoxy-1H-pyrazolo[3,4-b]quinolin-3-ylamine] | – | 900 nM | 22.22 | – | – | – |
| CS(=O)(=O)c1ncc(-c2ccc(Br)cc2)cn1 [Compound 107129, -(4-bromophenyl)-2-(methylsulfonyl)pyrimidine] | – | 250 nM | 40.0 | – | – | – |
| 2-chloro-N-(4-methylphenyl)-4-(trifluoromethyl)-1,3-thazole-5-carboxamide [Compound 91161] | – | – | 9.47 | 23300 nM | 13500 nM | 1900 nM |
| COc1ccc2nc(C(F)(F)F)c(C#N)c(N)c2c1 [Compound 104366, 4-amino-6-methoxy-2-(trifluoromethyl)-3-quinolinecarbonitrile] | – | 2500 nM | 11.2 | – | – | – |
| COc1cccc(NC(=O)c2cc(Cl)nnc2Cl)c1 [Compound 107740, 3,6-dichloro-N-(3-methoxyphenyl)-4-pyridazinecarboxamide] | – | 4900 nM | 10.2 | – | – | – |
| CCc1c(C)nc2sc(C(N)=O)c(N)c2c1C [Compound 103833, 3-amino-5-ethyl-4,6-dimethylthieno[2,3-b]pyridine-2-carboxamide] | > 37600 nM | 900 nM | 35.6 | – | – | – |
| CCc1c(C(=O)Nc2ccccc2)c(C)nc2sc(C(N)=O)c(N)c12 [Compound 75168, 3-amino-4-ethyl-6-methyl-N˜5˜-phenylthieno[2,3-b]pyridine-2,5-dicarboxamide] | – | 3000 nM | >33.3 | – | – | – |
